From US20250289785A1, “INDOLE DERIVATIVE, METHOD FOR PREPARING SAME, AND USE THEREOF” (MITOIMMUNE THERAPEUTICS INC., priority 2021, published 2025) come the findings set out here.

For assay [1], the system named is NIH/3T3 cells. Put plainly: Cell death protective effect in fibroblasts against Erastin, glutamate and RSL3 (LDH). In kind it is cell-based, mouse. Particulars: 24 h. The method, then: (§1) In order to identify the protective effect on fibroblasts, NIH/3T3 cells were divided into 96-well plates by 8×10^3 and cultured for 18 to 24 hours. The compounds of Examples were diluted to final concentrations of 0.1 and 1 μM, treated in each well, and incubated for 15 to 20 minutes. Erastin, glutamate, and RSL3 were treated to have final concentrations of 3 μM, 30 mM, and 3 μM, respectively, and cultured for 24 hours. In order to identify the protective effect of each compound, the degree of LDH extracellular secretion was measured using cytotoxicity LDH assay kit [Dojindo; CK12]. Briefly, at the time when the treatment of the cells with Erastin, glutamate, and RSL3 for 24 hours is completed, the supernatants containing the cells are taken by 70 μL and transferred to a new 96-well plate. The assay buffer included in the kit is added in an amount of 70 μL/well (the same amount as the sample) thereto, and then the plate is wrapped with a foil and the reaction is performed at room temperature for 15 minutes.

In assay [2] the test system is PC-12 cells. The assay is described as follows: Cell death protective effect in adrenal cells against Erastin, glutamate and RSL3 (LDH). Conditions: 24 h. In kind it is cell-based, rat. The method, then: as §1, with “on adrenal cells, PC-12” for “on fibroblasts, NIH/3T3”, “by 1×10^4” for “by 8×10^3”, “hours. […]” for “hours. The compounds of Examples were diluted to final concentrations of 0.1 and 1 μM, treated in each well, and incubated for 15 to 20 minutes.”, “of 1” for “of 3”, “μM, 10” for “μM, 30”, “and 0.3” for “and 3”

Assay [3] concerns NRK-49F cells. Put plainly: Cell death protective effect in renal fibroblasts against Erastin, glutamate and RSL3 (LDH). It counts as cell-based, rat. Conditions: 24 h. The method, then: as §1, with “effect on renal fibroblasts, NRK-49F” for “effect on fibroblasts, NIH/3T3”, “renal fibroblasts, NRK-49F cells were” for “on fibroblasts, NIH/3T3 cells were”, “plates by 1×10^4 and cultured” for “plates by 8×10^3 and cultured”, “0.1 and 1. μM, treated” for “0.1 and 1 μM, treated”, “3 μM, 75 mM, and” for “3 μM, 30 mM, and”

Assay [4] relates to ARPE-19 cells. Put plainly: Cell death protective effect in retinal epithelial cells against Erastin and RSL3 (LDH). In kind it is cell-based, human. Particulars: 24 h. The method, then:
In order to identify the protective effect on retinal epithelial cells, ARPE-19 cells were divided into 96-well plates by 1×10^4 and cultured for 18 to 24 hours. The compounds of Examples were diluted to final concentrations of 0.03 and 0.3 μM, treated in each well, and incubated for 20 minutes. Erastin, and RSL3 were treated to have final concentrations of 10 μM, and 0.3 μM, respectively, and cultured for 24 hours. In order to identify the protective effect of each compound, the degree of LDH extracellular secretion was measured using cytotoxicity LDH assay kit [Dojindo; CK12]. Briefly, at the time when the treatment of the cells with Erastin, and RSL3 for 24 hours is completed, the supernatants containing the cells are taken by 70 μL and transferred to a new 96-well plate. The assay buffer included in the kit is added in an amount of 70 μL/well (the same amount as the sample) thereto, and then the plate is wrapped with a foil and the reaction is performed at room temperature for 15 minutes.

In assay [5] the test system is MLE-12 cells. Put plainly: Cell death protective effect in lung epithelial cells against RSL3 (LDH). It counts as cell-based, rat. Particulars: MLE-12, RSL3, 1 μM, 24 h. The method, then:
In order to identify the protective effect on lung epithelial cells, MLE-12 cells were divided into 96-well plates by 5×10^3 and cultured for 18 to 24 hours. The compounds of Examples were diluted to final concentrations of 0.03 and 0. μM, treated in each well, and incubated for 20 minutes. RSL3 was treated to have final concentrations of 1. μM, respectively, and cultured for 24 hours. In order to identify the protective effect of each compound, the degree of LDH extracellular secretion was measured using cytotoxicity LDH assay kit [Dojindo; CK12]. Briefly, at the time when the treatment of the cells with RSL3 for 24 hours is completed, the supernatants containing the cells are taken by 70 μL and transferred to a new 96-well plate. The assay buffer included in the kit is added in an amount of 70 μL/well (the same amount as the sample) thereto, and then the plate is wrapped with a foil and the reaction is performed at room temperature for 15 minutes.

Where [6] appears, read: NIH/3T3, Erastin, 3 μM, compound 0.1 μM.
Where [7] appears, read: NIH/3T3, Erastin, 3 μM, compound 1.0 μM.
Setting [8] is: NIH/3T3, Glutamate, 30 mM, compound 0.1 μM.
Setting [9] is: NIH/3T3, Glutamate, 30 mM, compound 1.0 μM.
Setting [10] is: NIH/3T3, RSL3, 3 μM, compound 0.1 μM.
Where [11] appears, read: NIH/3T3, RSL3, 3 μM, compound 1.0 μM.
Setting [12] is: PC-12, Erastin, 1 μM, compound 0.1 μM.
Setting [13] is: PC-12, Erastin, 1 μM, compound 1.0 μM.
The mark [14] stands for this setting: PC-12, Glutamate, 10 mM, compound 0.1 μM.
The mark [15] stands for this setting: PC-12, Glutamate, 10 mM, compound 1.0 μM.
Setting [16] is: PC-12, RSL3, 0.3 μM, compound 0.1 μM.
Setting [17] is: PC-12, RSL3, 0.3 μM, compound 1.0 μM.
[18] abbreviates: Glutamate, 75 mM, compound 0.1 μM.
Setting [19] is: Glutamate, 75 mM, compound 1.0 μM.
[20] abbreviates: ARPE-19, Erastin, 10 μM, compound 0.03 μM.
[21] abbreviates: ARPE-19, Erastin, 10 μM, compound 0.3 μM.
Where [22] appears, read: ARPE-19, RSL3, 0.3 μM, compound 0.03 μM (first RSL3 column).
The mark [23] stands for this setting: ARPE-19, RSL3, 0.3 μM, compound 0.03 μM (second RSL3 column).

For `COCc1cc(NC2CCOCC2)c2[nH]c(-c3ccccc3)cc2c1` [Example 1, 5-(methoxymethyl)-2-phenyl-N-tetrahydropyran-4-yl-1H-indol-7-amine], the “inhibition (%)” value amounted to 99% in assay [1] (setting [6]); 99% in assay [1] (setting [7]); 98% in assay [1] (setting [8]); 97% in assay [1] (setting [9]); 98% in assay [1] (setting [10]); 99% in assay [1] (setting [11]). In addition, the “inhibition (%)” value in assay [2] (setting [12]) is recorded as 100%; in assay [2] (setting [13]) it was 100%; in assay [2] (setting [14]) it was 77%; in assay [2] (setting [15]), 100%; in assay [2] (setting [16]) it was 100%; in assay [2] (setting [17]), 100%. Also, the “inhibition (%)” value in assay [3] (Erastin, 3 μM, compound 0.1 μM) is given as 96%; in assay [3] (Erastin, 3 μM, compound 1.0 μM), 95%; in assay [3] (setting [18]), 100%; in assay [3] (setting [19]) it was 100%; in assay [3] (RSL3, 3 μM, compound 0.1 μM), 98%; in assay [3] (RSL3, 3 μM, compound 1.0 μM), 98%. In addition, the “inhibition (%)” value in assay [4] (setting [20]) amounted to 100%; in assay [4] (setting [21]) it was 100%; in assay [4] (setting [22]), 100%; in assay [4] (setting [23]) it was 100%; in assay [5] (compound 0.03 μM), 88%; in assay [5] (compound 0.3 μM) it was 100%.
As to `COCc1cc(NC2CCCC2)c2[nH]c(-c3ccccc3)cc2c1` [Example 2, N-cyclopentyl-5-(methoxymethyl)-2-phenyl-1H-indol-7-amine], the “inhibition (%)” value in assay [1] (setting [6]) was determined as 99%; in assay [1] (setting [7]) it was 100%; in assay [1] (setting [8]), 98%; in assay [1] (setting [9]), 99%; in assay [1] (setting [10]), 100%; in assay [1] (setting [11]), 100%. The “inhibition (%)” value in assay [2] (setting [12]) stood at 100%; in assay [2] (setting [13]), 100%; in assay [2] (setting [14]) it was 96%; in assay [2] (setting [15]), 100%; in assay [2] (setting [16]), 100%; in assay [2] (setting [17]) it was 100%. The “inhibition (%)” value is on record as 97% in assay [3] (Erastin, 3 μM, compound 0.1 μM); 94% in assay [3] (Erastin, 3 μM, compound 1.0 μM); 100% in assay [3] (setting [18]); 100% in assay [3] (setting [19]); 98% in assay [3] (RSL3, 3 μM, compound 0.1 μM); 97% in assay [3] (RSL3, 3 μM, compound 1.0 μM). Besides, the “inhibition (%)” value in assay [4] (setting [20]) is 100%; in assay [4] (setting [21]) it was 100%; in assay [4] (setting [22]), 100%; in assay [4] (setting [23]), 100%; in assay [5] (compound 0.03 μM), 84%; in assay [5] (compound 0.3 μM), 9%.
As to `COCc1cc(NC2CC[S+]([O-])CC2)c2[nH]c(-c3ccccc3)cc2c1` (stereo not drawn) [Example 14, 5-(methoxymethyl)-N-(1-oxothian-4-yl)-2-phenyl-1H-indol-7-amine], the “inhibition (%)” value in assay [1] (setting [6]) came out at 38%; in assay [1] (setting [7]), 100%; in assay [1] (setting [8]), 97%; in assay [1] (setting [9]), 96%; in assay [1] (setting [10]) it was 100%; in assay [1] (setting [11]) it was 100%. Besides, the “inhibition (%)” value in assay [2] (setting [12]) was 100%; in assay [2] (setting [13]) it was 100%; in assay [2] (setting [14]), 45%; in assay [2] (setting [15]) it was 100%; in assay [2] (setting [16]), 100%; in assay [2] (setting [17]) it was 100%. The “inhibition (%)” value was determined as 96% in assay [3] (Erastin, 3 μM, compound 0.1 μM); 93% in assay [3] (Erastin, 3 μM, compound 1.0 μM); 100% in assay [3] (setting [18]); 100% in assay [3] (setting [19]); 97% in assay [3] (RSL3, 3 μM, compound 0.1 μM); 97% in assay [3] (RSL3, 3 μM, compound 1.0 μM). Further, the “inhibition (%)” value in assay [4] (setting [20]) turned out to be 100%; in assay [4] (setting [21]), 98%; in assay [4] (setting [22]), 82%; in assay [4] (setting [23]), 98%; in assay [5] (compound 0.03 μM), 50%; in assay [5] (compound 0.3 μM), 100%.
As for `CCOCc1cc(NC2CCCC2)c2[nH]c(-c3ccccc3)cc2c1` [Example 19, N-cyclopentyl-5-(ethoxymethyl)-2-phenyl-1H-indol-7-amine], the “inhibition (%)” value in assay [1] (setting [6]) was found to be 100%; in assay [1] (setting [7]), 100%; in assay [1] (setting [8]), 95%; in assay [1] (setting [9]), 97%; in assay [1] (setting [10]), 100%; in assay [1] (setting [11]), 100%. The “inhibition (%)” value in assay [2] (setting [12]), in assay [2] (setting [13]), in assay [2] (setting [14]), in assay [2] (setting [15]), in assay [2] (setting [16]) and in assay [2] (setting [17]) was 100% in each case. Moreover, the “inhibition (%)” value in assay [3] (Erastin, 3 μM, compound 0.1 μM) is recorded as 96%; in assay [3] (Erastin, 3 μM, compound 1.0 μM) it was 95%; in assay [3] (setting [18]), 100%; in assay [3] (setting [19]), 100%; in assay [3] (RSL3, 3 μM, compound 0.1 μM) it was 97%; in assay [3] (RSL3, 3 μM, compound 1.0 μM), 96%. Further, the “inhibition (%)” value in assay [4] (setting [20]) worked out at 99%; in assay [4] (setting [21]), 100%; in assay [4] (setting [22]) it was 100%; in assay [4] (setting [23]) it was 100%; in assay [5] (compound 0.03 μM), 93%; in assay [5] (compound 0.3 μM) it was 100%.
